{"source": "patent US20250073248A1", "about": "“BIORESORBABLE CATIONIC STEROIDAL ANTIMICROBIAL COMPOUNDS WITH GLYCERIDE LINKAGES” (BRIGHAM YOUNG UNIVERSITY, priority 2023, published 2025)", "key": {"[1]": {"tested_on": "Candida albicans 90028", "assay": "Example 1 MIC/MFC (FIG. 1, FIG. 2), C. albicans", "format": "cell-based", "experimental": "(§1) The antimicrobial activities of CSA-4108, CSA-4110, CSA-4112, and CSA-4114 were determined relative to methicillin-resistant Staphylococcus aureus (MRSA), Pseudomonas aeruginosa (Pa), and Candida albicans 90028. The minimum inhibitory concentration (MIC) for CSA-4108, CSA-4110, CSA-4112, and CSA-4114 relative to the foregoing microbes is graphically reported in FIG. 1. The minimum bactericidal concentration (MBC) and minimum fungicidal concentration […] for CSA-4108, CSA-4110, CSA-4112, and CSA-4114 relative to the foregoing microbes are graphically reported in FIG. 2."}, "[2]": {"tested_on": "C. albicans ATCC 90028", "assay": "MIC/MFC of CSA-4110, fungi (Table 4)", "format": "cell-based", "conditions": "Candida albicans, ATCC90028", "experimental": "(§2) All compounds were screened against these pathogens to determine their minimum inhibitory concentration (MIC), minimum bactericidal concentration (MBC), and minimum fungicidal concentration (MFC) using a broth microdilution method. […] Of these three, only CSA-4110 was similarly active against PA01and CA, inhibiting growth at 8 μg/mL.\n(§3) CSA-4110 was evaluated further against a broader range of bacterial and fungal strains. Acinetobacter baumannii and several isolates of Staphylococcus aureus, Klebsiella pneumoniae, and Candida auris were selected, further broadening the coverage of high and critical priority pathogens. Streptococcus uberis, Staphylococcus pseudintermedius, Proteus mirabilis, and Escherichia coli were also screened to obtain a more complete efficacy profile. […] For comparison, previous work established the MICs of CSA-131 against strains of Staphylococcus aureus, Pseudomonas aeruginosa, and Candida albicans at 0.5-2 μg/mL"}, "[3]": {"tested_on": "broader range of bacterial and fungal strains", "assay": "CSA-4110 against a broader range of bacterial and fungal strains (summary of Tables 2-4)", "format": "cell-based", "experimental": "as §2, §3"}, "[4]": {"tested_on": "C. auris CDC 382", "assay": "MIC/MFC of CSA-4110, fungi (Table 4)", "format": "cell-based, Candida auris", "conditions": "Candidozyma auris, CDC382", "experimental": "as §2, §3"}, "[5]": {"tested_on": "C. auris CDC 389", "assay": "MIC/MFC of CSA-4110, fungi (Table 4)", "format": "cell-based, Candida auris", "conditions": "Candidozyma auris, CDC389", "experimental": "as §2, §3"}, "[6]": {"tested_on": "C. auris CDC 388", "assay": "MIC/MFC of CSA-4110, fungi (Table 4)", "format": "cell-based, Candida auris", "conditions": "Candidozyma auris, CDC388", "experimental": "as §2, §3"}, "[7]": {"tested_on": "C. auris CDC 383", "assay": "MIC/MFC of CSA-4110, fungi (Table 4)", "format": "cell-based, Candida auris", "conditions": "Candidozyma auris, CDC383", "experimental": "as §2, §3"}, "[8]": {"tested_on": "C. auris CDC 384", "assay": "MIC/MFC of CSA-4110, fungi (Table 4)", "format": "cell-based, Candida auris", "conditions": "Candidozyma auris, CDC384", "experimental": "as §2, §3"}, "[9]": {"tested_on": "C. auris CDC 386", "assay": "MIC/MFC of CSA-4110, fungi (Table 4)", "format": "cell-based, Candida auris", "conditions": "Candidozyma auris, CDC386", "experimental": "as §2, §3"}, "[10]": {"tested_on": "methicillin-resistant Staphylococcus aureus (MRSA)", "assay": "Example 1 MIC/MBC (FIG. 1, FIG. 2), MRSA", "format": "cell-based", "experimental": "as §1"}, "[11]": {"tested_on": "lipase", "assay": "Stability (hydrolysis) in the presence of lipase, HPLC", "format": "in vitro ADME", "experimental": "(§4) The stability, more particularly the rate of hydrolysis in water, of CSA-4110 was tested at various pH values or when exposed to lipase.\n(§5) To measure the stability of CSA-4110 under various conditions (pH and presence of lipase), monitored degradation over time by HPLC. To enable UV/visible detection, CSA-4110 required derivatization with a chromophore. A precolumn derivatization method was adapted using Fmoc-Cl. This method also required CSA-131 as an internal standard to eliminate errors due to volumetric variations.\n(§6) With a reliable quantitative analysis method in hand, the optimal storage conditions were determined for CSA-4110 in solution and how quickly CSA-4110 degrades when exposed to mammalian lipases and varied pH. Reference is again made to FIGS. 3A-3D."}, "[12]": {"tested_on": "MRSA ATCC BAA-42", "assay": "Membrane depolarization, DiSC2(5) fluorescence", "format": "cell-based, Staphylococcus aureus", "conditions": "8 μg/mL, added at 140 seconds, FIG. 5", "experimental": "Reference is made to FIGS. 4 and 5. […] CSA-131 or CSA-4110 was added at 140 second to achieve 8 μg/mL after addition.\nAntimicrobial peptides (AMPs) and CSA compounds are known to permeabilize bacterial membranes. For bacterial survival, the cytoplasmic membrane must be polarized. Depolarization of this membrane prevents ATP synthesis and leads to cell death. The dye 3,3′-diethylthiadicarbocyanine iodide (DiSC2(5)) can be used to measure cell membrane polarization. Fluorescence of this dye is decreased when it inserts into polarized membranes, and membrane depolarization results in substantial increases in fluorescence (see FIG. 5).\nMRSA was used to explore the impact of CSA-4110 on membrane depolarization and compared results to those with ceragenin CSA-131. […] Fluorescence was monitored over time after addition of CSA-4110 or CSA-131. which incorporated into cellular membranes."}, "[13]": {"assay": "Critical micelle concentration, orange OT dye solubilization", "format": "physicochemical", "conditions": "aqueous solution with orange OT dye, water; FIG. 4; read-out: critical micelle concentration (CMC), solubilization of orange OT", "experimental": "Previous studies have shown membrane disruption and permeabilization to be the mechanism of action of other CSA compounds. The critical micelle concentration (CMC) of CSA-4110 was measured to determine if aggregation was necessary for antimicrobial activity (see FIG. 4). This assay involves using a hydrophobic dye (orange OT) that is insoluble in water to measure what concentration of CSA-4110 is required to solubilize orange OT. Entry of orange OT into solution is due to micelle formation by CSA-4110 and can be quantified with a spectrophotometer."}, "[14]": {"tested_on": "Candida albicans (CA)", "assay": "MIC and MFC, broth microdilution, CA (Table 1)", "format": "cell-based", "conditions": "Candida albicans", "source_text": "To investigate the antimicrobial impact of structural variance in the novel bioresorbable CSA compounds disclosed herein,Pseudomonas aeruginosa 01 (PA01), methicillin-resistant Staphylococcus aureus (MRSA), and Candida albicans (CA) were selected, representing Gram-negative bacterial, Gram-positive bacterial, and fungal pathogens of high or critical priority on the world health organization's priority lists for bacteria and fungi. Earlier applications of CSA compounds have focused on preventing medical device infections, and all three strains are commonly found in colonized implants, making efficacy against these pathogens an important indicator of future applicability.\nas §2"}, "[15]": {"assay": "physchem", "format": "physicochemical", "conditions": "for half-life: buffer", "experimental": "as §4, §5, §6"}, "[16]": {"conditions": "all strains of Tables 2-4 except Proteus mirabilis"}}}
{"compound": "CCCCCCCCCC(=O)OCC(O)COC(=O)CC[C@@H](C)[C@H]1CC[C@H]2[C@@H]3[C@H](OC(=O)CCN)C[C@@H]4C[C@H](OC(=O)CCN)CC[C@]4(C)[C@H]3C[C@H](OC(=O)CCN)[C@]12C", "note": "(stereo partly shown) [CSA-4110]", "values": [{"measurement": "MFC (FIG. 2), ranking in words", "setting": "[1]", "value": "lowest MBC and MFC"}, {"measurement": "MIC (FIG. 1), ranking in words", "setting": "[1]", "value": "same MIC"}, {"measurement": "MBC", "setting": "[2]", "value": 16, "unit": "µg/mL"}, {"measurement": "MIC", "setting": "[2]", "value": 4, "unit": "µg/mL"}, {"measurement": "MBCs/MFCs, range over the strains", "setting": "[3]; [16]", "value": "2 to 16", "unit": "µg/mL"}, {"measurement": "MICs, range over the strains", "setting": "[3]; [16]", "value": "2 to 8", "unit": "µg/mL"}, {"measurement": "MICs, range as restated in the CMC paragraph", "setting": "[3]; compared with CMC", "value": "2 to 8", "unit": "g/mL"}, {"measurement": "MBC", "setting": "[4]", "value": 16, "unit": "µg/mL"}, {"measurement": "MIC", "setting": "[4]", "value": 8, "unit": "µg/mL"}, {"measurement": "MBC", "setting": "[5]", "value": 16, "unit": "µg/mL"}, {"measurement": "MIC", "setting": "[5]", "value": 8, "unit": "µg/mL"}, {"measurement": "MBC", "setting": "[6]", "value": 16, "unit": "µg/mL"}, {"measurement": "MIC", "setting": "[6]", "value": 8, "unit": "µg/mL"}, {"measurement": "MBC", "setting": "[7]", "value": 16, "unit": "µg/mL"}, {"measurement": "MIC", "setting": "[7]", "value": 8, "unit": "µg/mL"}, {"measurement": "MBC", "setting": "[8]", "value": 16, "unit": "µg/mL"}, {"measurement": "MIC", "setting": "[8]", "value": 4, "unit": "µg/mL"}, {"measurement": "MBC", "setting": "[9]", "value": 16, "unit": "µg/mL"}, {"measurement": "MIC", "setting": "[9]", "value": 8, "unit": "µg/mL"}, {"measurement": "MBC (FIG. 2), ranking in words", "setting": "[10]", "value": "lowest MBC and MFC"}, {"measurement": "MIC (FIG. 1), ranking in words", "setting": "[10]", "value": "lowest MIC"}, {"measurement": "hydrolysis in aqueous solution containing lipase", "setting": "[11]; FIG. 3D", "value": "hydrolyzed most rapidly"}, {"measurement": "half-life", "setting": "[11]; mammalian (lipase; species not named), lipase in aqueous solution, dissolved with a lipase at room temperature at pH=6.9", "value": 1, "unit": "h"}, {"measurement": "fluorescence of DiSC2(5) after addition (membrane depolarization)", "setting": "[12]", "value": "rapid increase of fluorescence"}, {"measurement": "critical micelle concentration", "setting": "[13]", "value": "~1000", "unit": "µg/mL"}, {"measurement": "MBC", "setting": "[14]; MFC, value in parentheses", "value": 16, "unit": "µg/mL"}, {"measurement": "MIC", "setting": "[14]; first value of cell", "value": 8, "unit": "µg/mL"}, {"measurement": "half-life", "setting": "[15]; pH 7.2", "value": 108, "unit": "h"}, {"measurement": "half-life", "setting": "[15]; pH 10", "value": 24, "unit": "h"}, {"measurement": "stability / hydrolysis in aqueous solution", "setting": "[15]; pH 7.2", "value": "less stable"}, {"measurement": "stability / hydrolysis in aqueous solution", "setting": "[15]; pH 10", "value": "unstable"}]}
